Source: PubChem BioAssay AID250 (DTP/NCI, 2004)
“And” between values parts separate entries of the source, which are not always exact repeats. Identical values can stand only once. Toxic doses and inconclusive results are not listed.

Test system: BDF1 mice, L1210 leukemia sc, survival T/C
Test: NCI In Vivo Anticancer Drug Screen. Data for tumor model L1210 Leukemia (subcutaneous) in B6D2F1 (BDF1) mice
Conditions: higher = longer survival
Protocol: The antitumor activity of compounds was measured in mice bearing transplantable tumors. Survival or tumor size were measured and the results are expressed as the measurement made in the treated group (T) divided by the measurement made in the vehicle treated control group (C). The tumor model used in this assay is L1210 Leukemia (subcutaneous) in B6D2F1 (BDF1) mice

[1] = endpoint: median survival time, dose: 65.0 mg/kg/injection, schedule: Q01DX Z (sc), vehicle: saline
[2] = endpoint: median survival time, dose: 108.0 mg/kg/injection, schedule: Q01DX Z (sc), vehicle: saline
[3] = endpoint: median survival time, dose: 108.0 mg/kg/injection, schedule: Q01DX Z (sc), vehicle: methylcellulose (MC)
[4] = endpoint: median survival time, dose: 180.0 mg/kg/injection, schedule: Q01DX Z (sc), vehicle: methylcellulose (MC)

CCOC(N)=O
T/C [1]: 95 % of control
T/C [2]: 100 % of control
T/C (endpoint: median survival time, dose: 180.0 mg/kg/injection, schedule: Q01DX Z (sc), vehicle: saline): 100 % of control
T/C (endpoint: median survival time, dose: 300.0 mg/kg/injection, schedule: Q01DX Z (sc), vehicle: saline): 100 % of control
T/C (endpoint: median survival time, dose: 500.0 mg/kg/injection, schedule: Q01DX Z (sc), vehicle: saline): 90 % of control

O=C(Nc1ccc(C(=O)Nc2ccc(C3=NCCN3)cc2)cc1)Nc1ccc(C2=NCCN2)cc1
T/C (endpoint: median survival time, dose: 39.0 mg/kg/injection, schedule: Q01DX Z (sc), vehicle: methylcellulose (MC)): 95 % of control
T/C (endpoint: median survival time, dose: 65.0 mg/kg/injection, schedule: Q01DX Z (sc), vehicle: methylcellulose (MC)): 95 % of control
T/C [3]: 100 % of control
T/C [4]: 110 % of control

CS(=O)(=O)Nc1ccc(Nc2c3ccccc3nc3cc(N)ccc23)cc1
T/C (endpoint: mean survival time, dose: 1.0 mg/kg/injection, schedule: Q01DX009 (ip), vehicle: saline): 103 % of control
T/C (endpoint: mean survival time, dose: 2.0 mg/kg/injection, schedule: Q01DX009 (ip), vehicle: saline): 99 % of control

Nc1ncnc2[nH]ncc12
T/C (endpoint: median survival time, dose: 3.0 mg/kg/injection, schedule: Q01DX Z (sc), vehicle: methylcellulose (MC)): 100 % of control
T/C (endpoint: median survival time, dose: 5.0 mg/kg/injection, schedule: Q01DX Z (sc), vehicle: methylcellulose (MC)): 112 % of control
T/C (endpoint: median survival time, dose: 8.4 mg/kg/injection, schedule: Q01DX Z (sc), vehicle: methylcellulose (MC)): 112 % of control and 115 % of control
T/C (endpoint: median survival time, dose: 14.0 mg/kg/injection, schedule: Q01DX Z (sc), vehicle: methylcellulose (MC)): 108 % of control
T/C (endpoint: median survival time, dose: 23.3 mg/kg/injection, schedule: Q01DX Z (sc), vehicle: methylcellulose (MC)): 91 % of control
T/C (endpoint: median survival time, dose: 38.9 mg/kg/injection, schedule: Q01DX Z (sc), vehicle: methylcellulose (MC)): 120 % of control
T/C (endpoint: median survival time, dose: 46.8 mg/kg/injection, schedule: Q01DX Z (sc), vehicle: methylcellulose (MC)): 116 % of control
T/C (endpoint: median survival time, dose: 64.8 mg/kg/injection, schedule: Q01DX Z (sc), vehicle: methylcellulose (MC)): 100 % of control
T/C (endpoint: median survival time, dose: 78.0 mg/kg/injection, schedule: Q01DX Z (sc), vehicle: methylcellulose (MC)): 100 % of control
T/C [3]: 100 % of control
T/C (endpoint: median survival time, dose: 130.0 mg/kg/injection, schedule: Q01DX Z (sc), vehicle: methylcellulose (MC)): 91 % of control
T/C [4]: 100 % of control
T/C (endpoint: median survival time, dose: 300.0 mg/kg/injection, schedule: Q01DX Z (sc), vehicle: methylcellulose (MC)): 100 % of control

OC(C1CO1)C(O)C1CO1 (stereo not drawn)
T/C (endpoint: median survival time, dose: 0.12 mg/kg/injection, schedule: Q01DX009 (ip), vehicle: saline): 98 % of control
T/C (endpoint: median survival time, dose: 0.25 mg/kg/injection, schedule: Q01DX009 (ip), vehicle: saline): 107 % of control
T/C (endpoint: median survival time, dose: 0.5 mg/kg/injection, schedule: Q01DX009 (ip), vehicle: saline): 107 % of control
T/C (endpoint: median survival time, dose: 1.0 mg/kg/injection, schedule: Q01DX009 (ip), vehicle: saline): 122 % of control
T/C (endpoint: median survival time, dose: 1.0 mg/kg/injection, schedule: Q01DX009 (ip), vehicle: water): 116 % of control
T/C (endpoint: median survival time, dose: 1.0 mg/kg/injection, schedule: Q01DX009 (sc), vehicle: water): 122 % of control
T/C (endpoint: median survival time, dose: 2.0 mg/kg/injection, schedule: Q01DX009 (ip), vehicle: saline): 150 % of control
T/C (endpoint: median survival time, dose: 2.0 mg/kg/injection, schedule: Q01DX009 (sc), vehicle: water): 150 % of control
T/C (endpoint: median survival time, dose: 2.0 mg/kg/injection, schedule: Q04DX003 (ip), vehicle: water): 111 % of control
T/C (endpoint: median survival time, dose: 4.0 mg/kg/injection, schedule: Q01DX009 (ip), vehicle: saline): 118 % of control
T/C (endpoint: median survival time, dose: 4.0 mg/kg/injection, schedule: Q04DX003 (ip), vehicle: water): 155 % of control
T/C (endpoint: median survival time, dose: 4.0 mg/kg/injection, schedule: Q04DX003 (sc), vehicle: water): 161 % of control
T/C (endpoint: median survival time, dose: 8.0 mg/kg/injection, schedule: Q04DX003 (ip), vehicle: water): 88 % of control
T/C (endpoint: median survival time, dose: 8.0 mg/kg/injection, schedule: Q04DX003 (sc), vehicle: water): 116 % of control

COC(=O)c1[nH]cnc1/N=N/N(C)C
T/C (endpoint: median survival time, dose: 14.0 mg/kg/injection, schedule: Q01DX Z (sc), vehicle: saline): 109 % of control
T/C (endpoint: median survival time, dose: 23.0 mg/kg/injection, schedule: Q01DX Z (sc), vehicle: saline): 100 % of control
T/C (endpoint: median survival time, dose: 39.0 mg/kg/injection, schedule: Q01DX Z (sc), vehicle: saline): 109 % of control
T/C [1]: 104 % of control
T/C [2]: 159 % of control
